Data published in ChEMBL document CHEMBL3991601, “The target landscape of clinical kinase drugs” (Science, 2017).
Calls of active or inactive are those of the source.

Target: Serine/threonine-protein kinase/endoribonuclease IRE2 (Homo sapiens, UniProt Q76MJ5)
Also: in the data inactive means no Kd found up to 30 µM.

Serine/threonine-protein kinase/endoribonuclease IRE2, sequence (Q76MJ5 whole entry): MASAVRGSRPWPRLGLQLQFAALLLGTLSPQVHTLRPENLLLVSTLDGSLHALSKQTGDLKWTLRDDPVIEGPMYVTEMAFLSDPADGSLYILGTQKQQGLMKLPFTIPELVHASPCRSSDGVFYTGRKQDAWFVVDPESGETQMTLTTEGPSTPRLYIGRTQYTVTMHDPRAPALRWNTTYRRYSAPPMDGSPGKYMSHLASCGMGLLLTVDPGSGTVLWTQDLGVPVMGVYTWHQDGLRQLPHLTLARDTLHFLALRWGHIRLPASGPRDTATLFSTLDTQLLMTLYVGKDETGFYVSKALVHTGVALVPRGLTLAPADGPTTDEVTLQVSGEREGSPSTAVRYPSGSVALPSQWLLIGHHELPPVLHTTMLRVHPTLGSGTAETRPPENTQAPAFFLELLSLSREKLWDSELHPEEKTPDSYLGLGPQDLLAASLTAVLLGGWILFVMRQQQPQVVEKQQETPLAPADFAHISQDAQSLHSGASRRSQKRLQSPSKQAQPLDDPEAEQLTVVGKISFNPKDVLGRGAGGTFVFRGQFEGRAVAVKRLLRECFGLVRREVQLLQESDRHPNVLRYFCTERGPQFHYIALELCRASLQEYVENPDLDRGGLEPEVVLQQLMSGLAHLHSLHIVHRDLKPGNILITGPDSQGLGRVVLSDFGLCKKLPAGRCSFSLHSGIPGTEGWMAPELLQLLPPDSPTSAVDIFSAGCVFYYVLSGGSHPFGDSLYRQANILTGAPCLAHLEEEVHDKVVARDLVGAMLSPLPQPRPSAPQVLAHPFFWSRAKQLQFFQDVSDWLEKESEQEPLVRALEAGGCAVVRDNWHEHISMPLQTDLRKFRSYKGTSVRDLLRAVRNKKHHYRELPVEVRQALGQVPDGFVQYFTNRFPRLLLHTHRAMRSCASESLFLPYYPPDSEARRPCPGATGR

| Structure (SMILES) | Kd |
| --- | --- |
| CC(=O)Nc1cccc(-n2c(=O)n(C3CC3)c(=O)c3c(Nc4ccc(I)cc4F)n(C)c(=O)c(C)c32)c1 [TRAMETINIB] | > 30 µM (inactive) |
| CC(C)Nc1cc(-c2c[nH]c(C(=O)N[C@H](CO)c3cccc(Cl)c3)c2)c(Cl)cn1 [ULIXERTINIB] | > 30 µM (inactive) |
| CCCS(=O)(=O)Nc1ccc(F)c(C(=O)c2c[nH]c3ncc(-c4ccc(Cl)cc4)cc23)c1F [VEMURAFENIB] | > 30 µM (inactive) |

Target: RAC-alpha serine/threonine-protein kinase (Homo sapiens, UniProt P31749)
Sequence (P31749 whole entry): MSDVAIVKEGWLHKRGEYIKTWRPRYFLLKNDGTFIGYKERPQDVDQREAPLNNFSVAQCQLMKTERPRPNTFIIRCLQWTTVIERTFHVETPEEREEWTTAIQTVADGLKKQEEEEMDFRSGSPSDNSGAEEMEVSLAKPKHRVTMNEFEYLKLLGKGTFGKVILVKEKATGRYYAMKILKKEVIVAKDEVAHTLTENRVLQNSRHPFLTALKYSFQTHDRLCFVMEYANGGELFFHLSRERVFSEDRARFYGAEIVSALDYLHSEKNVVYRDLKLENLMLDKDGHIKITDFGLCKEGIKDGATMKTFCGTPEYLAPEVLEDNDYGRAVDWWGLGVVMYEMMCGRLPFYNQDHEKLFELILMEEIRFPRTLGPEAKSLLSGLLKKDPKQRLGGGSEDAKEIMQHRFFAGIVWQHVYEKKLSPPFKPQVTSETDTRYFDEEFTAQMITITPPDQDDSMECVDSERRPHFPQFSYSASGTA

| Structure (SMILES) | Kd |
| --- | --- |
| CC(=O)Nc1cccc(-n2c(=O)n(C3CC3)c(=O)c3c(Nc4ccc(I)cc4F)n(C)c(=O)c(C)c32)c1 [TRAMETINIB] | > 30 µM (inactive) |
| CC(C)Nc1cc(-c2c[nH]c(C(=O)N[C@H](CO)c3cccc(Cl)c3)c2)c(Cl)cn1 [ULIXERTINIB] | > 30 µM (inactive) |
| CCCS(=O)(=O)Nc1ccc(F)c(C(=O)c2c[nH]c3ncc(-c4ccc(Cl)cc4)cc23)c1F [VEMURAFENIB] | > 30 µM (inactive) |

Target: T1, Non-receptor tyrosine-protein kinase TNK1 (Homo sapiens, UniProt Q13470)
T1 sequence (Q13470 whole entry): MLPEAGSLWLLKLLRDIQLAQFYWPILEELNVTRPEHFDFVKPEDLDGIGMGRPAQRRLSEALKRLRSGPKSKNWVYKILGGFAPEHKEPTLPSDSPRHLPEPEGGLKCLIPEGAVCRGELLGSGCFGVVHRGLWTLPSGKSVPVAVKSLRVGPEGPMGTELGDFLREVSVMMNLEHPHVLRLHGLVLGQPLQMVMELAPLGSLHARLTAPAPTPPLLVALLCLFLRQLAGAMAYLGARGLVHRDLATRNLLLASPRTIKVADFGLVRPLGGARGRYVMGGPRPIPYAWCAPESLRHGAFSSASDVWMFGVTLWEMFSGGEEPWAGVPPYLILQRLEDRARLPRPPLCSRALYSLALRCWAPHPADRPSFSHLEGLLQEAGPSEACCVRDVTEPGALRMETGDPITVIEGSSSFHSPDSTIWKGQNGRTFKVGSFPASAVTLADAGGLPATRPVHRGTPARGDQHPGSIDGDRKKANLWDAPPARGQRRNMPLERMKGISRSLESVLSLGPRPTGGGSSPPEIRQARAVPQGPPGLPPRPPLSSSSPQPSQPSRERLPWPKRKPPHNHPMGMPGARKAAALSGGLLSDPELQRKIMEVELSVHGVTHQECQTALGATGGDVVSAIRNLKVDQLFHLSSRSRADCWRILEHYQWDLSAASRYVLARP

| Structure (SMILES) | Kd |
| --- | --- |
| CC(=O)Nc1cccc(-n2c(=O)n(C3CC3)c(=O)c3c(Nc4ccc(I)cc4F)n(C)c(=O)c(C)c32)c1 [TRAMETINIB] | > 30 µM (inactive) |
| CC(C)Nc1cc(-c2c[nH]c(C(=O)N[C@H](CO)c3cccc(Cl)c3)c2)c(Cl)cn1 [ULIXERTINIB] | > 30 µM (inactive) |
| CCCS(=O)(=O)Nc1ccc(F)c(C(=O)c2c[nH]c3ncc(-c4ccc(Cl)cc4)cc23)c1F [VEMURAFENIB] | > 30 µM (inactive) |

Target: S-adenosylmethionine synthase isoform type-2 (Homo sapiens, UniProt P31153)
Sequence (P31153 whole entry, canonical isoform): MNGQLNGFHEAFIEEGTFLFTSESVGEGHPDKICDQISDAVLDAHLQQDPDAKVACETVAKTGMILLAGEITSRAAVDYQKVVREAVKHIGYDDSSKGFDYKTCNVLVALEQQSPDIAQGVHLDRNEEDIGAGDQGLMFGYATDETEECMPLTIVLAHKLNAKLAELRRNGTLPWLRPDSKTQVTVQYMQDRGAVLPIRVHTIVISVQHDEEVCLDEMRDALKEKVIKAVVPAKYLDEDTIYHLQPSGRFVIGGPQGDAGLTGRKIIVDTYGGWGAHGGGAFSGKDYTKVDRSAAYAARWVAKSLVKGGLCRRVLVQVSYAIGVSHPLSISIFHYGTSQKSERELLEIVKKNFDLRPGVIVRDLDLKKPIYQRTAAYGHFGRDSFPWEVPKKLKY

| Structure (SMILES) | Kd |
| --- | --- |
| CC(=O)Nc1cccc(-n2c(=O)n(C3CC3)c(=O)c3c(Nc4ccc(I)cc4F)n(C)c(=O)c(C)c32)c1 [TRAMETINIB] | > 30 µM (inactive) |
| CC(C)Nc1cc(-c2c[nH]c(C(=O)N[C@H](CO)c3cccc(Cl)c3)c2)c(Cl)cn1 [ULIXERTINIB] | > 30 µM (inactive) |
| CCCS(=O)(=O)Nc1ccc(F)c(C(=O)c2c[nH]c3ncc(-c4ccc(Cl)cc4)cc23)c1F [VEMURAFENIB] | > 30 µM (inactive) |

Target: T2, Bone morphogenetic protein receptor type-2 (Homo sapiens, UniProt Q13873)
T2 sequence (Q13873 whole entry): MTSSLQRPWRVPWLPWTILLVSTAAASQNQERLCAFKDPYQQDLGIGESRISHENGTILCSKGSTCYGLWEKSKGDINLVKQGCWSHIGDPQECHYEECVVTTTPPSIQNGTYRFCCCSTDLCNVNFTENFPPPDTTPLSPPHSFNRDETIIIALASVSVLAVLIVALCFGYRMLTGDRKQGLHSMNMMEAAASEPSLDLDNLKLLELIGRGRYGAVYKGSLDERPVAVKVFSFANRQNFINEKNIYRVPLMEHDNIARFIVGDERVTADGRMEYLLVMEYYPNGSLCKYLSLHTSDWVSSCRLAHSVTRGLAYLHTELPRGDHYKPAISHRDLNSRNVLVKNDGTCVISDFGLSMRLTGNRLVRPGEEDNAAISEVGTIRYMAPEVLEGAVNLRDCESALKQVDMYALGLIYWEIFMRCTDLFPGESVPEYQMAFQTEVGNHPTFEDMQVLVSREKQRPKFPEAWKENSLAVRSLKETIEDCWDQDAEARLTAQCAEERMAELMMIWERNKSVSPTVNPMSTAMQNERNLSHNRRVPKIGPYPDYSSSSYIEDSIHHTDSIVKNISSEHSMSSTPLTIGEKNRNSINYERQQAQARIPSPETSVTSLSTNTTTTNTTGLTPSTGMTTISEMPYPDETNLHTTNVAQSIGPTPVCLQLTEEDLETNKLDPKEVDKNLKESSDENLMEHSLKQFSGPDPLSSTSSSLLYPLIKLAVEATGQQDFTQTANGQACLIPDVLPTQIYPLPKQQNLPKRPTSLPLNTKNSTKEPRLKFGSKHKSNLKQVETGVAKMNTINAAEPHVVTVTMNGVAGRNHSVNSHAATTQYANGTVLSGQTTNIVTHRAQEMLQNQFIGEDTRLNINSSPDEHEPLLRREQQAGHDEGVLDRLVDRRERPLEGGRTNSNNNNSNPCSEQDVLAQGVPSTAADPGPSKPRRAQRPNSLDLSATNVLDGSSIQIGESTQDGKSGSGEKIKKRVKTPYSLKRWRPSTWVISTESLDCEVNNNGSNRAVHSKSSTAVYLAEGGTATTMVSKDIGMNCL

| Structure (SMILES) | Kd |
| --- | --- |
| CC(=O)Nc1cccc(-n2c(=O)n(C3CC3)c(=O)c3c(Nc4ccc(I)cc4F)n(C)c(=O)c(C)c32)c1 [TRAMETINIB] | > 30 µM (inactive) |
| CC(C)Nc1cc(-c2c[nH]c(C(=O)N[C@H](CO)c3cccc(Cl)c3)c2)c(Cl)cn1 [ULIXERTINIB] | > 30 µM (inactive) |
| CCCS(=O)(=O)Nc1ccc(F)c(C(=O)c2c[nH]c3ncc(-c4ccc(Cl)cc4)cc23)c1F [VEMURAFENIB] | > 30 µM (inactive) |

Target: Tyrosine-protein kinase JAK1 (Homo sapiens, UniProt P23458)
Sequence (P23458 whole entry): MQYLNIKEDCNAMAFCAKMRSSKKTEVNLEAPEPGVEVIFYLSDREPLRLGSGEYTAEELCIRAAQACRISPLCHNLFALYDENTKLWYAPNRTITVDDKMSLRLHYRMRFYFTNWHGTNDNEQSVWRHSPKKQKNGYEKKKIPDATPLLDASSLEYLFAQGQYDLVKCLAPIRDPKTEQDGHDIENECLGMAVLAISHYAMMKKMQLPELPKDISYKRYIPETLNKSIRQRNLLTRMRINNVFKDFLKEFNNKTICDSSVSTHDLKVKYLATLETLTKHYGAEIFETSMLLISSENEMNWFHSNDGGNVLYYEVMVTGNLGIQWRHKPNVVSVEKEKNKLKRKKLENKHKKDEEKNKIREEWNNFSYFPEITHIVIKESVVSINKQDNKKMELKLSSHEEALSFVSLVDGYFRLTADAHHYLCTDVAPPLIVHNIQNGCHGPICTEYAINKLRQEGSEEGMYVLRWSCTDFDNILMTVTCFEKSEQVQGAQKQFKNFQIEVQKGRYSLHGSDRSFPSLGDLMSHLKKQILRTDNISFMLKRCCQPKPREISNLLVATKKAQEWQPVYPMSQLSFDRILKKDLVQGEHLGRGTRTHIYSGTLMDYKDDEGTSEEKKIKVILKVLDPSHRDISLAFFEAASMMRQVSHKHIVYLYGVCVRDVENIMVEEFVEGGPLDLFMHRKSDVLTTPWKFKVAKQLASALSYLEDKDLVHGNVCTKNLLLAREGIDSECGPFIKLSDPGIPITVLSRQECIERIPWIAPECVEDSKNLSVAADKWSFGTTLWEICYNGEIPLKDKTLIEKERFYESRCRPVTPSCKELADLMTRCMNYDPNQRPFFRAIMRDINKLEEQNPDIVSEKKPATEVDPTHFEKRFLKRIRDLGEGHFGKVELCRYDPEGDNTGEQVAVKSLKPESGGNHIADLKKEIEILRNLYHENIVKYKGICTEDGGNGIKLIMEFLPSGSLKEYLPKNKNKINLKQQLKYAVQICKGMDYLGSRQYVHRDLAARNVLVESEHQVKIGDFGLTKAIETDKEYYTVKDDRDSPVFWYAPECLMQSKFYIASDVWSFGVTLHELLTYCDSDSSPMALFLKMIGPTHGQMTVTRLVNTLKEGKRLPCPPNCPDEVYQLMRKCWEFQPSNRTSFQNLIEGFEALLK

| Structure (SMILES) | Kd |
| --- | --- |
| CC(=O)Nc1cccc(-n2c(=O)n(C3CC3)c(=O)c3c(Nc4ccc(I)cc4F)n(C)c(=O)c(C)c32)c1 [TRAMETINIB] | > 30 µM (inactive) |
| CC(C)Nc1cc(-c2c[nH]c(C(=O)N[C@H](CO)c3cccc(Cl)c3)c2)c(Cl)cn1 [ULIXERTINIB] | > 30 µM (inactive) |
| CCCS(=O)(=O)Nc1ccc(F)c(C(=O)c2c[nH]c3ncc(-c4ccc(Cl)cc4)cc23)c1F [VEMURAFENIB] | > 30 µM (inactive) |

Target: T3, Phosphatidylinositol 5-phosphate 4-kinase type-2 gamma (Homo sapiens, UniProt Q8TBX8)
T3 sequence (Q8TBX8 whole entry): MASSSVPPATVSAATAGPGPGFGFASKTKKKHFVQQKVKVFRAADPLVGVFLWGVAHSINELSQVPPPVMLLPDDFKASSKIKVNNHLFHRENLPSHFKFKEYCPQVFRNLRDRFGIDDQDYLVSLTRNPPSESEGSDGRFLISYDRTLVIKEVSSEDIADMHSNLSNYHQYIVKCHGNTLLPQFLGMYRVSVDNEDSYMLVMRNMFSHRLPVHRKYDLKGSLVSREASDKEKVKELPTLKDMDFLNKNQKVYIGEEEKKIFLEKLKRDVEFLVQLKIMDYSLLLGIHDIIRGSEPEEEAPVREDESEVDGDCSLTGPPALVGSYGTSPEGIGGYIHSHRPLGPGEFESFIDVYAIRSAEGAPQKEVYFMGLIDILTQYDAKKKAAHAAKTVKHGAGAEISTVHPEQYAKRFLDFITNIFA

| Structure (SMILES) | Kd |
| --- | --- |
| CC(=O)Nc1cccc(-n2c(=O)n(C3CC3)c(=O)c3c(Nc4ccc(I)cc4F)n(C)c(=O)c(C)c32)c1 [TRAMETINIB] | > 30 µM (inactive) |
| CC(C)Nc1cc(-c2c[nH]c(C(=O)N[C@H](CO)c3cccc(Cl)c3)c2)c(Cl)cn1 [ULIXERTINIB] | > 30 µM (inactive) |
| CCCS(=O)(=O)Nc1ccc(F)c(C(=O)c2c[nH]c3ncc(-c4ccc(Cl)cc4)cc23)c1F [VEMURAFENIB] | > 30 µM (inactive) |

Target: T4, STE20-related kinase adapter protein alpha (Homo sapiens, UniProt Q7RTN6)
T4 sequence (Q7RTN6 whole entry): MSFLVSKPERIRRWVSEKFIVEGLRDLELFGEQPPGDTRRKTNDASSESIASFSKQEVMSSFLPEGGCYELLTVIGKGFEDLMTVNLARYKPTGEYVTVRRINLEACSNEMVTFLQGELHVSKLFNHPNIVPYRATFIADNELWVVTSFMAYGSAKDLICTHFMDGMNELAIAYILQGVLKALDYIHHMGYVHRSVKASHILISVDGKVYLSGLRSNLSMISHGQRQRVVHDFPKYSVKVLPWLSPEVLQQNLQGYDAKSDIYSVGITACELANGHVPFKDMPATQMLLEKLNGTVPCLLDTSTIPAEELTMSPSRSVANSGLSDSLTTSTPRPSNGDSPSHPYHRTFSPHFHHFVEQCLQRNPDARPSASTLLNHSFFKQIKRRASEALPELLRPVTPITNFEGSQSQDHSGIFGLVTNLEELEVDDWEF

| Structure (SMILES) | Kd |
| --- | --- |
| CC(=O)Nc1cccc(-n2c(=O)n(C3CC3)c(=O)c3c(Nc4ccc(I)cc4F)n(C)c(=O)c(C)c32)c1 [TRAMETINIB] | > 30 µM (inactive) |
| CC(C)Nc1cc(-c2c[nH]c(C(=O)N[C@H](CO)c3cccc(Cl)c3)c2)c(Cl)cn1 [ULIXERTINIB] | > 30 µM (inactive) |
| CCCS(=O)(=O)Nc1ccc(F)c(C(=O)c2c[nH]c3ncc(-c4ccc(Cl)cc4)cc23)c1F [VEMURAFENIB] | > 30 µM (inactive) |
